From patent US7595401B2, “Therapeutic compounds and their use in cancer” (Myriad Pharmaceuticals, Inc., priority 2006, dated 2009)

Test system: purified human Hsp90
Assay: Binding Assay: fluorescence polarization with BODIPY-labeled geldanamycin
Conditions: BODIPY-GM 10 nM, Hsp90 30 nM
Procedure, shortened: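 Compounds in 2% DMSO final compete with 10 nM BODIPY-GM for 30 nM purified human Hsp90, incubated overnight at room temperature in pH 7.3 HEPES buffer containing Na2MoO4 and DTT. Polarization (mP, ex/em 485/530) normalized to DMSO gives percent inhibition; autofluorescence-confounded data excluded.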

SMILES | % Inhibition at 5 μM Compound Concentration [%] | IC50 [nM]
CC(C)[C@H](NC(=O)OC(C)(C)C)C(=O)N1CCCC(CCn2cnc(N)c3nc(Sc4cc5c(cc4Br)OCO5)nc2-3)C1 (stereo partly drawn) [Example 698, tert-Butyl((1S)-1-{[3-(2-{6-amino-8-[(6-bromo-1,3-benzodioxol-5-yl)thio]-3H-purin-3-yl}ethyl)piperidin-1-yl]carbonyl}-2-methylpropyl)carbamate] | 55 | –
C[C@@H](NC(=O)OC(C)(C)C)C(=O)N1CCC(CCn2c(Sc3cc4c(cc3Br)OCO4)nc3c(N)ncnc32)CC1 [Example 695, tert-Butyl{(1R)-2-[4-(2-{6-amino-8-[(6-bromo-1,3-benzodioxol-5-yl)thio]-9H-purin-9-yl}ethyl)piperidin-l-yl]-1-methyl-2-oxoethyl}carbamate] | – | 410
Nc1ncnc2c1nc(Sc1cc3c(cc1Br)OCO3)n2CCC1CCN(C=O)CC1 [Example 363, 4-(2-{6-Amino-8-[(6-bromo-1,3-benzodioxol-5-yl)thio]-9H-purin-9-yl}ethyl)piperidine-1-carbaldehyde] | – | 300
COc1ccc(OC)c(Sc2nc3c(N)ncn(CCc4c(C)cc(C)cc4C)c-3n2)c1 [Example 56, 8-(2,5-dimethoxy-phenylsulfanyl)-3-[2-(2,4,6-trimethyl-phenyl)-ethyl]-3H-purin-6-ylamine] | 3 | –
Nc1ncn(CCN2C(=O)CCCC2=O)c2nc(Sc3cc4c(cc3Br)OCO4)nc1-2 [Example 497, 1-(2-{6-amino-8-[(6-bromo-1,3-benzodioxol-5-yl)thio]-3H-purin-3-yl}ethyl)piperidine-2,6-dione] | – | 25000
COc1ccc(OC)c(Sc2nc3c(N)ncnc3n2CCN2CCN(C(C)=O)CC2)c1 [Example 629, 9-[2-(4-Acetylpiperazin-1-yl)ethyl]-8-[(2,5-dimethoxyphenyl)thio]-9 H-purin-6-amine] | – | > 25000
COc1ccc(OC)c(Sc2nc3c(N)ncnc3n2CCC2CCN(C(=O)OC(C)(C)C)CC2)c1 [Example 342, tert-Butyl 4-(2-{6-amino-8-[(2,5-dimethoxyphenyl)thio]-9H-purin-9-yl}ethyl)piperidine-1-carboxylate] | – | 19000
COc1ccc(OC)c(Sc2nc3c(N)ncnc3n2CCc2ccc(F)cc2F)c1 [Example 121, 9-[2-(2,4-Difluoro-phenyl)-ethyl]-8-(2,5-dimethoxy-phenylsulfanyl)-9H-purine-6-ylamine] | 54 | 520
COc1ccc(OC)c(Sc2nc3c(N)ncnc3n2CCc2ccc(N(C)C)cc2)c1 [Example 185, 8-(2,5-Dimethoxy-phenylsulfanyl)-9-[2-(4-dimethylamino-phenyl)-ethyl]-9H-purin-6-ylamine] | – | > 2500
CC(C)(C)OC(=O)NC(CCn1cnc(N)c2nc(Sc3cc4c(cc3Br)OCO4)nc1-2)C1CC1 (centres unmarked) [Example 663, tert-butyl (3-{6-amino-8-[(6-bromo-1,3-benzodioxol-5-yl)thio]-3H-purin-3-yl}-1-cyclopropylpropyl)carbamate] | 15 | –
CC1(C)CC(CCn2cnc(N)c3nc(Sc4cc5c(cc4Br)OCO5)nc2-3)CC(C)(C)N1 [Example 351, 8-[(6-Bromo-1,3-benzodioxol-5-yl)thio]-3-[2-(2,2,6,6-tetramethylpiperidin-4-yl)ethyl]-3H-purin-6-amine] | 8 | –
C[C@H](O)C(=O)N1CCC(CCn2c(Sc3ccc4c(c3)CCO4)nc3c(N)ncnc32)CC1 [Example 768, (2S)-1-(4-{2-[6-Amino-8-(2,3-dihydro-1-benzofuran-5-ylthio)-9H-purin-9-yl]ethyl}piperidin-1-yl)-1-oxopropan-2-ol] | – | > 5000
COc1ccc(OC)c(Sc2nc3c(N)ncn(CCc4c(F)cccc4Cl)c-3n2)c1 [Example 123, 3-[2-(2-chloro-6-fluoro-phenyl)-ethyl]-8-(2,5-dimethoxy-phenylsulfanyl)-3H-purine-6-ylamine] | 0 | –
